Counter-ions that a name gives are not always drawn. Like-named read-outs stand apart in the source and are kept apart here.
Legend:
[1] = tested on: cytochrome P450 (CYP); assay: Cell-associated methamphetamine content in MEF with CYP inhibitor (LC/MS); conditions: methamphetamine 1 mM 24 h, inhibitor 1-10 μM
[2] = tested on: primary mouse embryonic fibroblasts (MEF); assay: ROS production in MEF (CM-H2DCFDA); assay type: cell-based; conditions: CYP inhibitors with methamphetamine
Description: Production of ROS was measured using the fluorescent probe CM-H2DCFDA (Invitrogen). This carboxy derivative of fluorescein carries additional negative charges that improve its retention compared to noncarboxylated forms. For these experiments, MEFs were grown in DMEM without phenol red, for which anti-oxidative properties have been reported. Cells were plated to subconfluence in 12-well plates, washed 3 times with pre-warmed PBS and loaded for 30 min at 37° C./5% CO2 with […] CM-H2DCFDA in DMEM without phenol red (loading medium). Then the loading medium was removed and pre-warmed fresh medium containing the different CYP450 inhibitors in presence or absence of methamphetamine was added. Fluorescence (excitation at 485 nm, emission at 530 nm) was analyzed immediately, cells were incubated at 37° C./5% CO2, and fluorescence was analyzed at the indicated time points. ROS rate versus control (%) was calculated subtracting the percentage of ROS increasing from time zero in the methamphetamine-treated samples to the percentage of ROS increasing from time zero in vehicle-treated samples.

[3] = tested on: primary mouse embryonic fibroblasts (MEF); assay type: cell-based
Description: (§1) Cells were washed with ice-cold phosphate-buffered saline (PBS) and scraped into 0.5 ml of methanol/water (1:1, vol:vol) containing the internal standards listed below. Protein concentrations were measured using the BCA protein assay (Pierce, Rockford, Ill., USA). Lipids were extracted with chloroform/methanol (2:1, vol:vol; 1.0 mL). The organic phases were collected, dried under nitrogen and dissolved in methanol for LC/MS analyses.
(§2) Helium was used as collision gas. […] Mobile phase composition was as described above.
(§3) Mouse embryonic fibroblasts (MEFs) were prepared from mice embryo as previously reported. Briefly, pregnant mice at day 13 post coitum were sacrificed and the uteri were dissected out. Each embryo was separated from the placenta and the head and visceral tissues were removed. The remaining body was minced in PBS and incubated with 0.1 mM trypsin/1 mM EDTA at 37° C. for 15 min. Two volumes of Dulbecco's Modified Eagle Medium (DMEM) containing 10% fetal bovine serum (FBS) was added and stood for 5 minutes to settle down large pieces of unbroken tissues. The supernatant was then removed and centrifuged at 200×g for 5 min and suspended in fresh DMEM containing 10% FBS. Cells were cultured at 37° C. with 5% CO2.

[4] = tested on: ceramide synthase (CerS); assay: Methamphetamine self-administration in rats: ceramide synthase activity in tissue; assay type: in vivo, rat; conditions: self-administering rats; data not shown
Description: (§4) Fresh rat tissues were collected in 1 ml of homogenization buffer (25 mM HEPES, pH 7.4, containing 5 mM EGTA, 50 mM NaF, and complete mini EDTA-free protease inhibitor). Tissues were disrupted using pulse homogenizer, and centrifuged at 800×g for 5 min. The postnuclear supernatant was centrifuged at 250,000×g for 30 min at 4° C. in ultracentrifuge. The microsomal membrane pellet was resuspended in 250-500 μl of homogenization buffer. Protein concentration was measured using the BCA protein assay (Pierce, Rockford, Ill.).
(§5) Ceramide synthase activity was measured at 37° C. for 1 hr in HEPES buffer (20 mM, pH 7.4) containing 2 mM MgCl2, fatty acid-free bovine serum albumin (20 μmol) membrane proteins (0.05-0.1 mg), using dihydrosphingosine (sphinganine d17:0, 20 μmol) and palmitoyl-coenzyme A (70 μmol) as substrates. The reactions were stopped by adding chloroform-methanol (2:1, v/v) containing C12:0 ceramide (d18:1/12:0) as an internal standard. Lipid extracts were dried under nitrogen and reconstituted in chloroform-methanol (1:3, v/v; 0.1 ml) for LC-MS analyses. Products of reaction were measured using an Agilent 1100-LC system coupled to ion-trap XCT and interfaced with ESI (Agilent Technologies). […] For quantification purposes, we monitored the ions at m/z 526.5>508.5 for C17:0 dihydroceramide (d17:0/16:0) and m/z 482.5>464.5>264.3 for C12:0 ceramide (d18:1/12:0).

[5] = tested on: primary mouse embryonic fibroblasts (MEF); assay: Population doubling; assay type: cell-based; conditions: 1 mM; compared to control cells
Description: We plated 1×10^6 cells on a 60 mm dishes and treated them with 1 mM methamphetamine. Cells were trypsinized and re-plated at the same density (1×10^6 cells/dish) every 3 days for 6 passages. Population doublings were calculated according to the formula log (final cell number/plated cell number/log 2).

[6] = tested on: ceramide content and IL-6 and p21 mRNA; assay: Acute experiment in mice: methamphetamine alone or in combination with L-CS; conditions: acute treatment with methamphetamine alone
[7] = tested on: primary mouse embryonic fibroblasts (MEF); assay type: cell-based; conditions: 1 mM, 48 h
Description: Detection of senescence-associated β-galactosidase staining was performed as previously reported. Briefly, we plated MEFs on Lab-Tek chamber slides at a density of 5×10^4 cells per chamber. Next day, cells were treated with the indicated dose of drug for 48 hours. Cells were washed twice with PBS and fixed in 2% formaldehyde/0.2% glutaraldehyde for five minutes at room temperature. After two PBS washes the slides were incubated with fresh β-galactosidase stain solution (1 mg/mL 5-bromo-4-chloro-3-indoyl β-D-galactoside (X-Gal) 40 mM sodium phosphate, pH 6.0, 5 mM potassium ferrocyanide, 5 mM potassium ferricyanide, 150 mM NaCl, and 2 mM MgCl2) at 37° C. for 12-16 hours. Slides were washed with PBS and mounted with DAPI containing media. Images were taken for the β-gal staining and overlapped with fluorescent images taken of the same region to count the number of cells staining positive for β-gal (Nikon Eclipse E600). More than 200 cells from 5 different regions of a slide were counted in a blind fashion.

[8] = tested on: primary mouse embryonic fibroblasts (MEF); assay: Crystal violet staining, cell morphology; assay type: cell-based; conditions: 48 h, 1 mM, passage 2
Description: To study cell morphology, cells were plated and treated in 6-well plates. After fixation, with 4% paraformaldehyde cells were stained with crystal violet (0.5% crystal violet in methanol:PBS, 1:1, v/v). After thorough wash in tap water, images were taken using a Westover Scientific Series 8 microscope.

[9] = tested on: ceramide synthase (CerS); assay: Acute methamphetamine administration in rats: ceramide synthase activity; assay type: in vivo, rat; conditions: non-contingent methamphetamine administration; data not shown
Description: Three groups of rats were used for these experiments. […] Other details are the same as for group 1.
as §4
as §5, with “Lipid extracts were dried under nitrogen and reconstituted in chloroform-methanol (1:3, v/v; 0.1 ml) for LC-MS analyses.” left out

[10] = tested on: primary mouse embryonic fibroblasts (MEF); assay: Gene expression in MEF; assay type: cell-based
Description: Total RNA was extracted from frozen tissues using TRIzol reagent (Invitrogen, Carlsbad, Calif.) and was purified with the RNeasy mini kit (Qiagen, Valencia, Calif.). First-strand complementary DNAs were synthesized using SuperScript II RNaseH reverse transcriptase (Invitrogen). Reverse transcription of total RNA (2 μg) was carried out using oligo(dT)12-18 primers for 50 min at 42° C. mRNA levels were measured by quantitative real-time polymerase chain reaction (RT-PCR) with a Mx 3000P system (Stratagene, La Jolla, Calif.). The following list of primers and fluorogenic probes purchased from Applied Biosystems (TaqMan Gene Expression Assays, Foster City, Calif.): Ceramide Synthase 1 (Rn01420081_m1), Ceramide Synthase 2 (Rn01762789_m1), Ceramide Synthase 4 (Rn01767402_m1), Ceramide Synthase 5 (Rn01532864_m1), Ceramide Synthase 6 (Rn01270930_m1), Interleukin-6 (Rn01410330_m1). mRNA levels were normalized using beta actin, 18S ribosomal protein or glyceraldehyde-3-phosphate dehydrogenase as internal standards. Additional PCR primers were designed using Primer 3 (https://www.Frodo.wit.mit.edu), and the sequences are shown in S.Table XXX.
as §3

[11] = tested on: isolated mitochondria from primary MEF; assay: Lipid analysis of isolated mitochondria from MEF; assay type: cell-based, mouse; conditions: methamphetamine 1 mM
Description: as §1, §2, §3

[12] = tested on: de novo ceramide biosynthesis; assay: Acute methamphetamine administration in rats: tissue lipid levels
Description: Forty-six male Sprague-Dawley rats (Charles River, Wilmington, Mass.), weighing approximately 360-420 g were used in these experiments.
Three groups of rats were used for these experiments. Group 1: On the day of the experiment, rats received two i.p. injections of methamphetamine, 10 mg/kg (n=6), or saline (n=6) every 2 h. Two hours after the last administration of methamphetamine or saline, rats were euthanized by decapitation. Brain, liver, kidney (left), heart, skin (hind paw), skeletal muscle (vastus lateralis muscle) were harvested. Brains and livers were snap-frozen in isopentane and other tissues were snap-frozen in liquid nitrogen and stored at −80° C. Group 2: On the day of the experiment, rats received two i.p. injections of methamphetamine, 1.5 mg/kg (n=6), or saline (n=6) every 2 h. Other details are the same as for group 1. Group 3: On the day of the experiment, five rats received two i.p. injections of 1.5 mg/kg methamphetamine every 2 h; five rats received two i.p. injections of 5 mg/kg methamphetamine every 2 h; six rats received two i.p. injections of 10 mg/kg D-methamphetamine every 2 h, and six rats received two i.p. injections of saline every 2 h. Two hours after the last injection, blood was collected by cardiac puncture under isoflurane anesthesia and immediately afterwards brain, skeletal muscle and skin were harvested and handled as described for group 1.
Briefly, frozen brain samples were weighed and homogenized in cold methanol containing appropriate internal standards (listed below). Lipids were extracted by adding chloroform and water (2/1, vol/vol) and fractionated through open-bed silica gel columns by progressive elution with chloroform/methanol mixtures. Fractions eluted from the columns were dried under nitrogen, reconstituted in chloroform/methanol (1:4, vol/vol; 0.1 ml) and subjected to LC/MS.
Sphingolipid molecular species were analyzed by tandem mass spectrometry, using an Agilent 1100 liquid chromatography coupled to an ESI-ion-trap XCT mass detector. Dihydroceramides and ceramides were separated on a Poroshell 300 SB C18 column (2.1×75 mm i.d., 5 μm; Agilent Technologies) maintained at 30° C. […] Extracted ion chromatograms were used to quantify the following ceramides: d18:1/16:0 [M+H]^+ (m/z=538.5>520.5>264.3), d18:0/16:0 [M+H]^+ (m/z=540.5>522.5), d18:1/18:0 [M+H]^+ (m/z=566.5>548.5>264.3), d18:0/18:0 [M+H]^+ (m/z=568.5>550.5), d18:1/24:0 [M+H]^+ (m/z=650.6>632.8>2643), d18:0/24:0 [M+H]^+ (m/z=652.6>634.8), d18:1/24:1 [M+H]^+ (m/z=648.6>630.8>264.3), d18:0/24:1 [M+H]^+ (m/z=650.6>632.8), using d18:1/12:0 [M+H]^+ (m/z=482.5>464.5>264.3) as an internal standard. […]

[13] = tested on: de novo ceramide biosynthesis; assay: Methamphetamine self-administration in rats: lipidomic analysis of tissues by LC/MS
Description: Male Sprague-Dawley rats (Charles River, Wilmington, Mass.), weighing approximately 360-440 g at the beginning of the self-administration experiment, were individually housed in a temperature- and humidity-controlled environment under a reversed lighting 12-h light/dark cycle (lights on at 7:00 p.m.). The rats were allowed free access to food (NIH07 biscuits) in their home cage throughout the study. Water was available ad libitum in the home cage and in the testing chamber. Rats were tested in the light phase. They were experimentally and drug naïve at the beginning of this study.
Each of eighteen standard operant-conditioning chambers (Coulbourn Instruments, Lehigh Valley, Pa.) contained a white house light and two holes with nose-poke operanda on either side of a food trough. Upon activation, each nose poke produced a brief feedback tone. […] The tubing was attached to a syringe pump (Harvard Apparatus, South Natick, Mass.), which was programmed to deliver 2-s injections. The injected volume was adjusted for every animal to deliver a methamphetamine dose of 0.1 mg/kg/injection. Experimental events were controlled by microcomputers using MED Associates interfaces and software (Med Associates Inc., East Fairfield, Vt.).
Silastic catheter was implanted into the external jugular vein under anesthesia with a mixture of ketamine and xylazine (60 and 10 mg/kg i.p., respectively). Catheter exited the skin behind the ear. After catheter implantation, a nylon bolt glued to an acrylic mesh was implanted subcutaneously in the midscapular region. The nylon bolt served as a tether, preventing the catheter from being pulled out during self-administration sessions. Following surgery, the IV catheter was flushed daily during the first week with 0.2-0.3 ml of solution containing cephalosporin (100 mg/ml; Cefazolin For Injection, USP; Hospira Inc., Lake Forest, Ill., USA) and then flushed before and after each daily session with saline to maintain its patency) and then flushed after each daily session with saline to maintain its patency.
Each experimental group was divided into two subgroups that were tested simultaneously. One subgroup served as yoked controls and passively received an injection of saline (which was not contingent on responding) each time a response-contingent injection of 0.1 mg/kg methamphetamine was actively self-administered by the first subgroup of rats. […] The first experimental groups consisted of 12 rats self-administering methamphetamine and 6 yoked control rats. The second experimental group consisted of 9 rats self-administering methamphetamine and 9 yoked control rats. The third experimental group consisted of 16 rats self-administering methamphetamine and 8 yoked control rats. […] The pretreatment with L-CS was always given immediately before and after each session and the catheter was flushed with 0.5 ml of saline afterwards. Before and after sessions 4 and 5 animals received dose 10 mg/kg of L-CS and before and after sessions 6, 7, and 8 they received dose 20 mg/kg of L-CS. The animals received total dose 160 mg/kg of L-CS during the experiment.
Eight consecutive 15-hour sessions were conducted between 4 p.m. and 8 a.m. Rats and the food in the feeders were weighed before the start of each session. At the start of each session, a white house light was turned on and a priming injection of 0.1 mg/kg methamphetamine (or saline for yoked group), sufficient to fill the “dead” space of the IV catheter, was automatically delivered. Rats learned to self-administer methamphetamine under one-response, fixed ratio schedule (FRI) of i.v. methamphetamine injection with 30-s time-out duration.

[14] = tested on: primary mouse embryonic fibroblasts (MEF); assay: DNA replication assay ([3H]thymidine); conditions: 48 h, 1 mM
[15] = skeletal muscle, rats self-administering methamphetamine vs controls
[16] = skeletal muscle, self-administering rats vs controls

SMILES: Clc1ccccc1C(c1ccccc1)(c1ccccc1)n1ccnc1 [clotrimazole]
- levels of non-metabolized methamphetamine [1]: increased
- release of ROS evoked by methamphetamine [2]: prevented
- baseline ceramide content ([3]; MEF without methamphetamine, inhibitor 10 μM, n=3, […]): 49.2±3 pmol-mg^−1 protein
- methamphetamine-induced ceramide accumulation ([3]; MEF, inhibitor 1-10 μM): decreased

SMILES: CN[C@@H](C)Cc1ccccc1 [methamphetamine, S(+)-methylamphetamine HCl]
- CerS activity [4]: increased
- number of population doublings [5]: decreased
- ceramide content [6]: increased
- number of SA-β-gal positive cells ([7]; passage 1 to 4, vs vehicle-treated cells): increased
- increase in the number of SA-β-gal positive cells ([7]; passage 3, versus non-treated cells): greater than 4 fold
- number of SA-β-gal positive cells ([7]; passage 5): did not further increase
- cell morphology [8]: morphological changes typical of senescent phenotype
- CerS activity [9]: increased
- mRNA levels of the genes involved de novo ceramide biosynthesis ([10]; MEF treated with methamphetamine): increased
- p21 and p53 transcription ([10]; MEF, methamphetamine treatment): increase
- long chain ceramides (d18:1/24:0 and d18:1/24:1) [11]: mitochondrial specific increase
- short chain ceramide (d18:1/16:0) [11]: increases
- striatal levels of various ceramide species ([12]; dorsal striatum, 2×10 mg/kg intraperitoneal): marked increase
- changes in ceramide species ([12]; low doses (i.e., non-toxic)): did not induce any changes
- ceramide levels in peripheral tissues ([12]; plasma, skeletal muscle, heart, liver and skin, 2×10 mg/kg intraperitoneal): marked increases
- d18:1/16:0 ceramide levels ([12]; rat skeletal muscle, intraperitoneal 3, 10, and 20 mg/kg): dose-dependent increase
- increase in ceramide (d18:1/16:0) [13, 15]: 4 fold
- increase in dihydroceramide (d18:1/16:0) [13, 15]: 4 fold
- levels of dihydrosphingomyelin (d18:1/16:0) [13, 16]: unchanged
- levels of sphingomyelin (d18:1/16:0) [13, 16]: unchanged
- multiple ceramide species ([13]; various tissues, largest increase in skeletal muscle, heart and liver, methamphetamine-exposed rats vs controls): substantially increased
- ceramide (d18:1/16:0) content ([3]; incubation of MEF with the drug alone): increased ceramide (d18:1/16:0) in a dose-dependent manner
- DNA synthesis, [3H]-thymidine [14]: decreased

— US20150148387A1, “METHODS OF TREATMENT, DIAGNOSIS AND […] METHA[…] WHICH TARGET CERAMIDE METABOLIC […] AND […] SENESCENCE” (priority 2012, published 2015)
